From ChEMBL document CHEMBL3091362, “Molecular basis for the long duration of action and kinetic selectivity of tiotropium for the muscarinic M3 receptor” (J Med Chem, 2013) come the findings set out here.

Assay [1] relates to Muscarinic acetylcholine receptor M3 (Homo sapiens), P20309 [K523A]. As to conditions: HEK-293T.
Assay [2] relates to Muscarinic acetylcholine receptor M3 (Homo sapiens), P20309 [D518A]. Conditions: HEK-293T.
In assay [3] the test system is Muscarinic acetylcholine receptor M3 (Homo sapiens), P20309 [E228A]. Conditions: HEK-293T.
Assay [4] concerns Muscarinic acetylcholine receptor M3 (Homo sapiens), P20309 [F225A]. As to conditions: HEK-293T.
In assay [5] the test system is Muscarinic acetylcholine receptor M3 (Homo sapiens), P20309 [Q224A]. Conditions: HEK-293T.
The subject of assay [6] is Muscarinic acetylcholine receptor M3 (Homo sapiens), P20309 [F222A]. As to conditions: HEK-293T.
In assay [7] the test system is Muscarinic acetylcholine receptor M3 (Homo sapiens), P20309 [E220A]. Conditions: HEK-293T.
The test system of assay [8] is Muscarinic acetylcholine receptor M3 (Homo sapiens), P20309 [K213A]. As to conditions: HEK-293T.
Assay [9] relates to Muscarinic acetylcholine receptor M3 (Homo sapiens), P20309 [R133A]. Conditions: HEK-293T.
Assay [10] has as its target T1, Muscarinic acetylcholine receptor M3 (Homo sapiens, UniProt P20309). Conditions: HEK-293T.
Target sequence in this assay (P20309 whole entry, looked up): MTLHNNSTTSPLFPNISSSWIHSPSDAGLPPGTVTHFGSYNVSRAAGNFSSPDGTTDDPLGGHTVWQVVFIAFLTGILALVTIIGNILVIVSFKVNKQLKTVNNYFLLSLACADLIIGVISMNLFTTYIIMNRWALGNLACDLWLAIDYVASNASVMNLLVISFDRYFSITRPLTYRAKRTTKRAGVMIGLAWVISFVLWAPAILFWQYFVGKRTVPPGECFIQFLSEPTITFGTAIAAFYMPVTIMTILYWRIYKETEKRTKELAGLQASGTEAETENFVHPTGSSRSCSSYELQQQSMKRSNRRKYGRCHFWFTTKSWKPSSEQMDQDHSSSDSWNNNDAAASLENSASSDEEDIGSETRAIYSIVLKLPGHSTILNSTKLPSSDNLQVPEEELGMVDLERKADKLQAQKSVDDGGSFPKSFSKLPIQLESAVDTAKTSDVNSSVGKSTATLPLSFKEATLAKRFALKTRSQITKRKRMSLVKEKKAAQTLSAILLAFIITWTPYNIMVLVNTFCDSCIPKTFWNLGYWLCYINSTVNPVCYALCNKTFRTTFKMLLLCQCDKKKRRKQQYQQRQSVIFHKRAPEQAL
Description: Binding affinity to wild type human M3 receptor expressed in HEK293T cells assessed as half life by radioligand displacement assay
Assay [11] has as its target T1, Muscarinic acetylcholine receptor M3. Description: biochemical. The assay is classed as cell-based, HEK-293T.
Target sequence in this assay (P20309 whole entry): as the sequence (P20309 whole entry, looked up) above
Description: Binding affinity to wild type human M3 receptor expressed in HEK293T cells up to 24 hrs by radioligand displacement assay

Chain of Muscarinic acetylcholine receptor M3 (Homo sapiens), P20309 [D518A] (P20309 whole entry D518A): as the sequence (P20309 whole entry, looked up) above, with D518A counted along it
Chain of Muscarinic acetylcholine receptor M3 (Homo sapiens), P20309 [E228A] (P20309 whole entry E228A): as the sequence (P20309 whole entry, looked up) above, with E228A counted along it
Chain of Muscarinic acetylcholine receptor M3 (Homo sapiens), P20309 [R133A] (P20309 whole entry R133A): as the sequence (P20309 whole entry, looked up) above, with R133A counted along it
Chain of Muscarinic acetylcholine receptor M3 (Homo sapiens), P20309 [Q224A] (P20309 whole entry Q224A): as the sequence (P20309 whole entry, looked up) above, with Q224A counted along it
Chain of Muscarinic acetylcholine receptor M3 (Homo sapiens), P20309 [E220A] (P20309 whole entry E220A): as the sequence (P20309 whole entry, looked up) above, with E220A counted along it
Chain of Muscarinic acetylcholine receptor M3 (Homo sapiens), P20309 [K213A] (P20309 whole entry K213A): as the sequence (P20309 whole entry, looked up) above, with K213A counted along it
Chain of Muscarinic acetylcholine receptor M3 (Homo sapiens), P20309 [F222A] (P20309 whole entry F222A): as the sequence (P20309 whole entry, looked up) above, with F222A counted along it
Chain of Muscarinic acetylcholine receptor M3 (Homo sapiens), P20309 [F225A] (P20309 whole entry F225A): as the sequence (P20309 whole entry, looked up) above, with F225A counted along it
Chain of Muscarinic acetylcholine receptor M3 (Homo sapiens), P20309 [K523A] (P20309 whole entry K523A): as the sequence (P20309 whole entry, looked up) above, with K523A counted along it

Regarding `C[N+]1(C)[C@@H]2C[C@@H](OC(=O)C(O)(c3cccs3)c3cccs3)C[C@H]1[C@@H]1O[C@@H]12`, the T1/2 in assay [1] came to 12.5 h; in assay [2], 22.6 h; in [3], 20.1 h; in assay [4], 13.8 h; in assay [5], 12.4 h; in [6], 23 h. Besides, the T1/2 came out at 31.7 h in assay [7], 20.4 h in [8], 25.4 h in assay [9] and 24.5 h in assay [10].
Usually Ki stands for a measure of affinity in units of concentration, obtained from inhibition or displacement. Read a high Ki as weaker binding. Take `C[N+]1(C)[C@@H]2C[C@H](OC(=O)C(O)(c3ccccc3)c3ccccc3)C[C@H]1[C@@H]1O[C@@H]12`: the Ki in assay [11] is 0.0631 nM.
As to `C[N+]1(C)[C@@H]2C[C@H](OC(=O)C(CO)(c3cccs3)c3cccs3)C[C@H]1[C@@H]1O[C@@H]12`, in [11], the Ki was 0.316 nM.
`C[N+]1(C)[C@@H]2C[C@H](OC(=O)C(O)c3ccccc3)C[C@H]1[C@@H]1O[C@@H]12` (stereo partly specified) gave a Ki in [11] of 2 nM.
`CC(C(=O)O[C@H]1C[C@@H]2[C@H]3O[C@H]3[C@H](C1)[N+]2(C)C)(c1cccs1)c1cccs1` had a Ki in assay [11] of 0.0501 nM.
`COC(C(=O)O[C@H]1C[C@@H]2[C@H]3O[C@H]3[C@H](C1)[N+]2(C)C)(c1cccs1)c1cccs1` gave an inhibition constant Ki in [11] of 1.58 nM.
For `C[N+]1(C)[C@@H]2C[C@H](OC(=O)C(O)c3cccs3)C[C@H]1[C@@H]1O[C@@H]12` (stereo partly specified), the Ki in assay [11] was 5.01 nM.
